According to patent US20050215531A1, “Use of edg receptor binding agents in cancer” (priority 2002, published 2005):

Columns and labels:
Type in all cases: cell-based, human
JNK½ = experiment: Western blot, JNK½ activation in HUVEC
Method: (§1) Human umbilical vein endothelial cells (HUVEC) are cultured at 37° C. and 5% CO2 in medium M199 supplemented with 20% SCS (HyClone, Logan, Utah), 1 U/ml heparin, 50 μg/ml ECGS, 2 mM glutamine, 100 U/ml penicillin and 0.1 mg/ml streptomycin. Cells are used for experiments up to passage number 5. Short-starved HUVEC are obtained by starving with 1% SCS-containing M199 for 5 h. Recombinant human VEGF165 is obtained from PromoCell (Heidelberg, Germany). Phospho-specific ERK½, p3B kinase polyclonal antibodies, nonphospho ERK½ antibodies and LumiGLO chemiluminescent reagent are from New England BioLabs (Beverly, Mass.), polyclonal IKB antibodies from Santa Cruz Biotechnology (Santa Cruz, Calif.). Peroxidase-conjugated donkey anti-rabbit immunoglobulin G (IgG) and sheep anti-mouse IgG are purchased from Amersham LIFE SCIENCE (Amersham Place, England). lmmobilon-P transfer membranes are products of Millipore (Bedford, Mass.). S is obtained from Sigma Chemical Co.; S1P is from Biomol. Compound A-phosphate stock solution is prepared by the following protocol. Compound A-phosphate is dissolved in methanol tracing with concentrated HCl (0.5 mg Compound A-phosphate in 500 μl of methanol plus 2 μl of HCl). […]

ERK½ MAP kinases = experiment: Western blot, activation of ERK½ MAP kinases in HUVEC; conditions: HUVEC
Method: (§2) Human umbilical vein endothelial cells (HUVEC) are cultured at 37° C. and 5% CO2 in medium M199 supplemented with 20% SCS (HyClone, Logan, Utah), 1 U/ml heparin, 50 μg/ml ECGS, 2 mM glutamine, 100 U/ml penicillin and 0.1 mg/ml streptomycin. Cells are used for experiments up to passage number 5. Short-starved HUVEC are obtained by starving with 1% SCS-containing M199 for 5 h. Recombinant human VEGF165 is obtained from PromoCell (Heidelberg, Germany). Phospho-specific ERK½, p3B kinase polyclonal antibodies, nonphospho ERK½ antibodies and LumiGLO chemiluminescent reagent are from New England BioLabs (Beverly, Mass.), polyclonal IKB antibodies from Santa Cruz Biotechnology (Santa Cruz, Calif.). Peroxidase-conjugated donkey anti-rabbit immunoglobulin G (IgG) and sheep anti-mouse IgG are purchased from Amersham LIFE SCIENCE (Amersham Place, England). lmmobilon-P transfer membranes are products of Millipore (Bedford, Mass.). S is obtained from Sigma Chemical Co.; S1P is from Biomol. Compound A-phosphate stock solution is prepared by the following protocol. Compound A-phosphate is dissolved in methanol tracing with concentrated HCl (0.5 mg Compound A-phosphate in 500 μl of methanol plus 2 μl of HCl). Solvent from the resulting solution is evaporated under vacuum and the residue obtained is redissolved (variant 1) in 0.1% of defatted BSA solution in sterile deionized water (500 μl) or (variant 2) in 0.5% Triton X-100 in deionized water. The resulting stock solutions (2.5 mM) are sonicated and stored at 4° C.
After various treatments, the cells are washed twice with cold PBS, lysed in 100 μl of Laemmli buffer, scraped and heated for 5 min at 95° C. Total cell lysates are separated by SDS-PAGE and transferred to Immobilon-P membrane. The membrane is blocked for 30 minutes with PBS containing 0.1% Tween-20 and 3% skim milk and incubated for 1 hour at RT with a primary antibody diluted in blocking buffer. The membrane obtained is washed three times for 5 minutes with PBS containing 0.1% Tween-20 and incubated with peroxidase-conjugated secondary antibody for 1 hour at RT. After a washing step, the membrane is incubated for 1 minute with ECL reagent and exposed to film as required. For reprobing with another antibody, the membrane is washed twice in PBS, stripped for 30 min at 55° C. with stripping buffer (62.5 mM Tris-HCL, pH 6.8, 2% SDS, 100 mM 2-mercaptoethanol) and washed three times for 5 minutes with PBS at RT. The membrane is stored wet wrapped in SaranWrap at 4° C. after each immunodetection.
Signal transduction via MAP idnases plays a key role in a variety of endothelial cell functions. Treatment of HUVEC with Compound A-phosphate at 0.5 μM may result in transient activation of ERK½ with a peak of phosphorylation/activation at 10 minutes and returning to baseline by 20 minutes (see e.g. FIG. 5). No activation of p38 kinase and JNK½ by Compound A-phosphate is detectable in HUVEC. […] To estimate the possible role of inflammatory/NFκB-dependent program in Compound A-phosphatestimulated bioresponses of endothelial cells, the membranes are reprobed with anti-IκB antibodies. IκB levels are not affected by Compound A-phosphate treatment.

HUVEC = experiment: In vitro angiogenesis (tube formation) assay on Matrigel
Method: as §2
Morphogenesis of endothelial cells into capillary-like structures on Growth Factor Reduced Matrigel Matrix (BD Bioscience) is performed according to the manufacture procedure. Briefly, HUVEC are trypsinized, resuspended in serum-free Ml 99 medium containing soybean trypsin inhibitor (1 mg/ml, Sigma). After centrifugation cells are resuspended in serum-free medium at a density 0.5×10^5 cells/ml, and cell suspension is seeded in 96-well cell culture plates (Costar, Corning Incorporated) precoated with 50 μl of Matrigel in the absence or presence of various stimuli: VEGF at 1.5 nM, S1P at 0.1-2 μM, S at 0.5-2 μM, Compound A at 0.5-2 μM, and Compound A-phosphate at 0.1-2 μM. Eight hours later, cells on Matrigel are fixed with 3% formaldehyde in PBS and kept at 4° C. Results are quantitated from images made with a Nikon Diaphot microscope equipped with a cooled CCD camera (Kappa GmbH, Gleichen, Germany) by direct counting of branching points on two microscopic fields from each well done in duplicates.
The effect of Compound A and Compound A-phosphate on morphogenic differentiation of endothelial cells is determined using an in vitro angiogenesis assay on Matrigel. Endothelial cell morphogenesis is a complex process that requires cell-extracellular matrix interactions, followed by matrix remodelling, stimulated migration, cell-cell interactions, and perivascular proteolysis. […] This may be interpreted as a possible involvement of EDG-1 (S1P1) receptor-mediated signaling events in Compound A-phosphate-stimulated bioresponses (see e.g. FIG. 3). […] Importantly, high concentrations of S and Compound A (2-5 μM) inhibited VEGF-triggered tube formation.

tissue factor = experiment: Clotting assay, tissue factor activity on HUVEC
Method: as §2
Cells are seeded in 6-well plates at 80-90% confluency and grown overnight. Cells are scraped from the plates and analyzed for tissue factor activity according to the method as described in Clauss, M., J. Biol. Chem. 271,17629-17634 (1996), Mechtcheriakova, D., Blood 93,3811-3823 (1999). Briefly, after induction for 4 hours with VEGF (1.5 nM), TNF-α (100 U/ml), S (0.5-2 μM), S1P (0.5-2 μM), Compound A (0.5-2 μM), and Compound A-phosphate (0.5-2 μM), cells are washed twice and then scraped in 1 ml clotting buffer (12 mM sodium acetate, 7 mM diethylbarbitate and 130 mM sodium chloride; pH 7.4). 50 μl of resuspended cells are mixed with 50 μl of citrated plasma, and clotting times are determined after recalcfication with 50 μl of 20 mM CaCl2 solution at 37° C. TF-equivalents are determined by using a standard curve obtained from rabbit brain thromboplastin.
An important characteristic feature of both classical inflammatory stimulus TNF-α and the main angiogenic growth factor VEGF on endothellal cells is their potency to upregulate tissue factor. Compound A, Compound A-phosphate, S or S1P are tested whether they also do induce tissue factor on HUVEC. […] The data obtained together indicate that Compound A, Compound A-phosphate, S and S1P mechanistically work distinctly to anglogenic VEGF and inflammatory TNF-α.

IκB = experiment: Western blot reprobed with anti-IκB antibodies (NFκB-dependent program); conditions: endothelial cells
Method: as §1

E-Selectin = E-Selectin expression in endothelial cells
p38 kinase = experiment: Western blot, p38 kinase activation in HUVEC
Method: as §1

## CCCCCCCCc1ccc(CCC(N)(CO)COP(=O)(O)O)cc1 (centres unmarked) [Compound A-phosphate]
JNK½
  activation of JNK½: No activation
ERK½ MAP kinases; 0.5 μM
  time of ERK½ activation returning to baseline: ≤ 20 min
ERK½ MAP kinases; 0.5 μM, transient activation
  time of peak of ERK½ phosphorylation/activation: 10 min
ERK½ MAP kinases; 0.5 versus 2 μM
  ERK½ activation, dose dependence: dose-dependent manner, showing stronger activity at 2 μM
HUVEC; 2 μM
  tube formation potency at 2 μM versus 0.5 μM: less potent than at 0.5 μM
HUVEC; 0.5-1 μM, with VEGF
  effect on VEGF-mediated remodelling: does not attenuate
HUVEC; bell-shape dose-dependence, tested 0.1-2 μM, 8 h
  concentration of maximal activity in capillary-like network formation: around 0.5 μM
HUVEC; compared with S1P and VEGF
  number of branching points per microscopic field (induction potency): comparable for Compound A-phosphate and S1P
Tissue factor; TNF-α 100 U/ml
  effect on TNF-α-induced tissue factor: not TNF-α-induced
Tissue factor; VEGF 1.5 nM
  effect on VEGF-induced tissue factor: slightly enhance
Tissue factor; compound alone or in combinations, 0.5-2 μM, 4 hours
  tissue factor activity: none of these compounds alone or in combinations may elevate tissue factor activity
IκB
  IκB levels: not affected
E-Selectin
  E-Selectin expression: fail to induce
p38 kinase
  activation of p38 kinase: No activation
